This note sets out measurements from patent US20250171437A1 (Agios Pharmaceuticals,Inc., priority 2022, published 2025).

For this assay, the target named is T1, human PAH with the R408W mutation (A375 R408W cells) (Homo sapiens, UniProt P00439, R408W).
T1 construct: expressed in transfected cells
T1 sequence (P00439 1-452 R408W): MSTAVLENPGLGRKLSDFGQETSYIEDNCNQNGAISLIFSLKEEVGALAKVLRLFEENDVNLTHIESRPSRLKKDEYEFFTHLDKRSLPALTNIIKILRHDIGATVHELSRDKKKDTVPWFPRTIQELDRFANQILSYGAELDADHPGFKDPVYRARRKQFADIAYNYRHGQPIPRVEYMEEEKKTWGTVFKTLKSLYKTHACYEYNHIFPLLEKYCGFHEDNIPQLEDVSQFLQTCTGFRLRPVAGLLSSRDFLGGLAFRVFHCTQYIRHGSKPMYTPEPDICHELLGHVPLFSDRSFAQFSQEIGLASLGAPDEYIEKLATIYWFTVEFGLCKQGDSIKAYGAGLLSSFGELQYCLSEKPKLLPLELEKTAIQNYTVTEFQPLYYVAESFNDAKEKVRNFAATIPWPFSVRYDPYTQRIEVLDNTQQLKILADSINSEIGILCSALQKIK
In words: Cell Based Phenylalanine Flux Assay. The note with it: A375 R408W cells; 24 hrs with compound, then 20 μM sepiapterin and 800 μM 13C9,15N-Phenylalanine for 4 hours; 13C-Tyrosine by LC-MS; average where tested multiple times. In outline:
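Phenylalanine-to-tyrosine flux is measured in A375 cells carrying stable human R408W PAH. After 24 h compound exposure, 13C9,15N-Phe (800 μM) with sepiapterin (20 μM) is supplied for 4 h and media 13C-Tyr is read by LC-MS; AC50s are binned.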
As usually defined, the AC50 is the midpoint of the concentration-response curve, whichever way the signal moves. With `Cc1ccc2nc([C@H]3c4nc[nH]c4CCN3C(=O)c3nnc(-c4ccn(C)n4)o3)oc2c1` [Example 358, (R)-(5-(1-methyl-1H-pyrazol-3-yl)-1,3,4-oxadiazol-2-yl)(4-(6-methylbenzo[d]oxazol-2-yl)-6,7-dihydro-1H-imidazo[4,5-c]pyridin-5(4H)-yl)methanone], the AC50 is 1000 to 5000 nM.
As for `Cc1ccc2nc([C@@H]3c4nc[nH]c4CCN3C(=O)c3nnc(-c4cc[nH]n4)o3)oc2c1` [Example 359, (S)-(5-(1H-pyrazol-3-yl)-1,3,4-oxadiazol-2-yl)(4-(6-methylbenzo[d]oxazol-2-yl)-6,7-dihydro-1H-imidazo[4,5-c]pyridin-5(4H)-yl)methanone], the AC50 was 500 to 1000 nM.
To `Cc1ccc2nc([C@H]3c4nc[nH]c4CCN3C(=O)c3nnc(-c4cc[nH]n4)o3)oc2c1` [Example 360, (R)-(5-(1H-pyrazol-3-yl)-1,3,4-oxadiazol-2-yl)(4-(6-methylbenzo[d]oxazol-2-yl)-6,7-dihydro-1H-imidazo[4,5-c]pyridin-5(4H)-yl)methanone] belongs 1000 to 5000 nM.
To `Cc1cccc2oc([C@@H]3c4nc[nH]c4CCN3C(=O)c3oc(C(C)(C)O)nc3C(F)F)nc12` [Example 361, (S)-(4-(difluoromethyl)-2-(2-hydroxypropan-2-yl)oxazol-5-yl)(4-(4-methylbenzo[d]oxazol-2-yl)-6,7-dihydro-1H-imidazo[4,5-c]pyridin-5(4H)-yl)methanone] belongs at most 500 nM; to `Cc1cccc2oc([C@H]3c4nc[nH]c4CCN3C(=O)c3oc(C(C)(C)O)nc3C(F)F)nc12` [Example 362, (R)-(4-(difluoromethyl)-2-(2-hydroxypropan-2-yl)oxazol-5-yl)(4-(4-methylbenzo[d]oxazol-2-yl)-6,7-dihydro-1H-imidazo[4,5-c]pyridin-5(4H)-yl)methanone], 1000 to 5000 nM; to `CN1CCN(c2ccc3c(C(=O)N4CCc5[nH]cnc5[C@H]4c4nc5cccc(F)c5o4)cnn3c2)CC1` [Example 363, (S)-(4-(7-fluorobenzo[d]oxazol-2-yl)-6,7-dihydro-1H-imidazo[4,5-c]pyridin-5(4H)-yl)(6-(4-methylpiperazin-1-yl)pyrazolo[1,5-a]pyridin-3-yl)methanone], at most 500 nM.
Turning to `CN1CCN(c2ccc3c(C(=O)N4CCc5[nH]cnc5[C@@H]4c4nc5cccc(F)c5o4)cnn3c2)CC1` [Example 364, (R)-(4-(7-fluorobenzo[d]oxazol-2-yl)-6,7-dihydro-1H-imidazo[4,5-c]pyridin-5(4H)-yl)(6-(4-methylpiperazin-1-yl)pyrazolo[1,5-a]pyridin-3-yl)methanone], the AC50 lay in the range of 1000 to 5000 nM.
Regarding `O=C(c1cnn2cc(N3CCOCC3)ccc12)N1CCc2[nH]cnc2[C@H]1c1nc2cccc(F)c2o1` [Example 365, (S)-(4-(7-fluorobenzo[d]oxazol-2-yl)-6,7-dihydro-1H-imidazo[4,5-c]pyridin-5(4H)-yl)(6-morpholinopyrazolo[1,5-a]pyridin-3-yl)methanone], the half-maximal activity concentration (AC50) lay in the range of 500 to 1000 nM.
Take `O=C(c1cnn2cc(N3CCOCC3)ccc12)N1CCc2[nH]cnc2[C@@H]1c1nc2cccc(F)c2o1` [Example 366, (R)-(4-(7-fluorobenzo[d]oxazol-2-yl)-6,7-dihydro-1H-imidazo[4,5-c]pyridin-5(4H)-yl)(6-morpholinopyrazolo[1,5-a]pyridin-3-yl)methanone]: the AC50 was 1000 to 5000 nM.
Take `CC(C)(O)C1CCN(c2ccc3c(C(=O)N4CCc5[nH]cnc5[C@@H]4c4nc5cccc(F)c5o4)cnn3c2)CC1` [Example 367, (R)-(4-(7-fluorobenzo[d]oxazol-2-yl)-6,7-dihydro-1H-imidazo[4,5-c]pyridin-5(4H)-yl)(6-(4-(2-hydroxypropan-2-yl)piperidin-1-yl)pyrazolo[1,5-a]pyridin-3-yl)methanone]: the AC50 lay in the range of 1000 to 5000 nM.
As to `CC(C)(O)C1CCN(c2ccc3c(C(=O)N4CCc5[nH]cnc5[C@H]4c4nc5cccc(F)c5o4)cnn3c2)CC1` [Example 368, (S)-(4-(7-fluorobenzo[d]oxazol-2-yl)-6,7-dihydro-1H-imidazo[4,5-c]pyridin-5(4H)-yl)(6-(4-(2-hydroxypropan-2-yl)piperidin-1-yl)pyrazolo[1,5-a]pyridin-3-yl)methanone], the AC50 lay within 500 to 1000 nM.
Regarding `O=C(c1cnn2cc(N3CCC(F)CC3)ccc12)N1CCc2[nH]cnc2[C@H]1c1nc2cccc(F)c2o1` [Example 369, (S)-(4-(7-fluorobenzo[d]oxazol-2-yl)-6,7-dihydro-1H-imidazo[4,5-c]pyridin-5(4H)-yl)(6-(4-fluoropiperidin-1-yl)pyrazolo[1,5-a]pyridin-3-yl)methanone], the AC50 was at most 500 nM.
For `O=C(c1cnn2cc(N3CCC(F)CC3)ccc12)N1CCc2[nH]cnc2[C@@H]1c1nc2cccc(F)c2o1` [Example 370, (R)-(4-(7-fluorobenzo[d]oxazol-2-yl)-6,7-dihydro-1H-imidazo[4,5-c]pyridin-5(4H)-yl)(6-(4-fluoropiperidin-1-yl)pyrazolo[1,5-a]pyridin-3-yl)methanone], the AC50 fell in the range of 1000 to 5000 nM.
On to `O=C(c1cnn2cc(N3CCC(O)CC3)ccc12)N1CCc2[nH]cnc2[C@H]1c1nc2cccc(F)c2o1` [Example 371, (S)-(4-(7-fluorobenzo[d]oxazol-2-yl)-6,7-dihydro-1H-imidazo[4,5-c]pyridin-5(4H)-yl)(6-(4-hydroxypiperidin-1-yl)pyrazolo[1,5-a]pyridin-3-yl)methanone], for which the AC50 lay in the range of 500 to 1000 nM.
Turning to `O=C(c1cnn2cc(N3CCC(O)CC3)ccc12)N1CCc2[nH]cnc2[C@@H]1c1nc2cccc(F)c2o1` [Example 372, (R)-(4-(7-fluorobenzo[d]oxazol-2-yl)-6,7-dihydro-1H-imidazo[4,5-c]pyridin-5(4H)-yl)(6-(4-hydroxypiperidin-1-yl)pyrazolo[1,5-a]pyridin-3-yl)methanone], the AC50 fell in the range of 1000 to 5000 nM.
For `O=C(c1ocnc1C(F)F)N1CCc2[nH]cnc2[C@H]1c1nc2c(F)ccc(F)c2o1` [Example 373, (S)-(4-(4,7-difluorobenzo[d]oxazol-2-yl)-6,7-dihydro-1H-imidazo[4,5-c]pyridin-5(4H)-yl)(4-(difluoromethyl)oxazol-5-yl)methanone], the AC50 is at most 500 nM.
As to `O=C(c1ocnc1C(F)F)N1CCc2[nH]cnc2[C@@H]1c1nc2c(F)ccc(F)c2o1` [Example 374, (R)-(4-(4,7-difluorobenzo[d]oxazol-2-yl)-6,7-dihydro-1H-imidazo[4,5-c]pyridin-5(4H)-yl)(4-(difluoromethyl)oxazol-5-yl)methanone], the AC50 is at most 500 nM.
`CC(C)(O)c1nc(C(F)F)c(C(=O)N2CCc3[nH]cnc3[C@H]2c2nc3cc(Cl)ccc3o2)o1` [Example 375, (S)-(4-(5-chlorobenzo[d]oxazol-2-yl)-6,7-dihydro-1H-imidazo[4,5-c]pyridin-5(4H)-yl)(4-(difluoromethyl)-2-(2-hydroxypropan-2-yl)oxazol-5-yl)methanone]: the AC50 fell in the range of 500 to 1000 nM.
Next, `CC(C)(O)c1nc(C(F)F)c(C(=O)N2CCc3[nH]cnc3[C@@H]2c2nc3cc(Cl)ccc3o2)o1` [Example 376, (R)-(4-(5-chlorobenzo[d]oxazol-2-yl)-6,7-dihydro-1H-imidazo[4,5-c]pyridin-5(4H)-yl)(4-(difluoromethyl)-2-(2-hydroxypropan-2-yl)oxazol-5-yl)methanone]: 1000 to 5000 nM; `O=C(c1ocnc1C(F)F)N1CCc2[nH]cnc2[C@@H]1c1nc2cc(Cl)ccc2o1` [Example 377, (R)-(4-(5-chlorobenzo[d]oxazol-2-yl)-6,7-dihydro-1H-imidazo[4,5-c]pyridin-5(4H)-yl)(4-(difluoromethyl)oxazol-5-yl)methanone]: 500 to 1000 nM; `O=C(c1ocnc1C(F)F)N1CCc2[nH]cnc2[C@H]1c1nc2cc(Cl)ccc2o1` [Example 378, (S)-(4-(5-chlorobenzo[d]oxazol-2-yl)-6,7-dihydro-1H-imidazo[4,5-c]pyridin-5(4H)-yl)(4-(difluoromethyl)oxazol-5-yl)methanone]: at most 500 nM.
Take `Cn1ccc(-c2nnc(C(=O)N3CCc4[nH]cnc4[C@H]3c3nc4c(F)cccc4o3)o2)n1` [Example 379, (S)-(4-(4-fluorobenzo[d]oxazol-2-yl)-1,4,6,7-tetrahydro-5H-imidazo[4,5-c]pyridin-5-yl)(5-(1-methyl-1H-pyrazol-3-yl)-1,3,4-oxadiazol-2-yl)methanone]: the AC50 is at most 500 nM.
As to `Cn1ccc(-c2nnc(C(=O)N3CCc4[nH]cnc4[C@@H]3c3nc4c(F)cccc4o3)o2)n1` [Example 380, (R)-(4-(4-fluorobenzo[d]oxazol-2-yl)-1,4,6,7-tetrahydro-5H-imidazo[4,5-c]pyridin-5-yl)(5-(1-methyl-1H-pyrazol-3-yl)-1,3,4-oxadiazol-2-yl)methanone], the AC50 lay within 500 to 1000 nM.
Next, `Cc1cccc2oc([C@H]3c4nc[nH]c4CCN3C(=O)c3ocnc3C(F)F)nc12` [Example 381, (R)-(4-(difluoromethyl)oxazol-5-yl)(4-(4-methylbenzo[d]oxazol-2-yl)-6,7-dihydro-1H-imidazo[4,5-c]pyridin-5(4H)-yl)methanone]: 1000 to 5000 nM.
With `Cc1cccc2oc([C@@H]3c4nc[nH]c4CCN3C(=O)c3ocnc3C(F)F)nc12` [Example 382, (S)-(4-(difluoromethyl)oxazol-5-yl)(4-(4-methylbenzo[d]oxazol-2-yl)-6,7-dihydro-1H-imidazo[4,5-c]pyridin-5(4H)-yl)methanone], the AC50 is at most 500 nM.
